The test concerns the target Muscarinic acetylcholine receptor M2 (Homo sapiens, UniProt P08172). Kind of test: Binding affinity to human recombinant muscarinic M2 receptor expressed in CHO cells after 90 mins by radioligand displacement assay. In kind it is cell-based. Background: Loss of bound radioactivity is the signal in a displacement assay; it reports binding, not function.

Muscarinic acetylcholine receptor M2, sequence (P08172 whole entry): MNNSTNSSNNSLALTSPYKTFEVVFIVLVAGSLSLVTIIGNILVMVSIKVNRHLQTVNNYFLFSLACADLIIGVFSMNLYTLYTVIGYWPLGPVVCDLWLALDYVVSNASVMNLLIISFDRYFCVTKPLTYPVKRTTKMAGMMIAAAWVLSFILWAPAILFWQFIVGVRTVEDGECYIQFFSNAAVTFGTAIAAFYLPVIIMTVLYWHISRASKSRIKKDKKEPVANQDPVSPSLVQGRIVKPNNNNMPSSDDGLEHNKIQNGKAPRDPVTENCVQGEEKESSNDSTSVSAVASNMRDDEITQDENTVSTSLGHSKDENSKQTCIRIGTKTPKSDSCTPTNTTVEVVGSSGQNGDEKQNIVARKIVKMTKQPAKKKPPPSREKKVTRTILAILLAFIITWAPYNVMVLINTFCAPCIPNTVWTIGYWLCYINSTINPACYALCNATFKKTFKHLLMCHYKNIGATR

Usually Ki stands for the equilibrium dissociation constant of an inhibitor or competing ligand from its target. With `Cl.NC1=Nc2ccc(Cl)cc2CN1`, the inhibitory constant (Ki) was above 10 µM.

These data come from ChEMBL document CHEMBL2434905, “2-Amino-6-chloro-3,4-dihydroquinazoline: A novel 5-HT3 receptor antagonist with antidepressant character” (Bioorg Med Chem Lett, 2013).
